Experimental data taken from ChEMBL document CHEMBL3779894, “Synthesis and in Vitro Screening of New Series of 2,6-Dipeptidyl-anthraquinones: Influence of Side Chain Length on HIV-1 Nucleocapsid Inhibitors” (J Med Chem, 2016).
pIC50: −log10 of the molar value. Activity calls are given as the source filed them. The rule behind the calls is not given here.

Legend:
[1] = Inhibition of recombinant full length HIV-1 nucleocapsid assessed as inhibition of nucleocapsid-mediated melting of TAR RNA measured 3 times with 1 min interval by FRET based assay; parameters: species or system Human immunodeficiency virus 1
[2] = system: Human immunodeficiency virus 1; experiment: Inhibition of recombinant full length HIV-1 nucleocapsid assessed as inhibition of TAR RNA/cTAR DNA annealing upto 100 uM preincubated with oligonucleotides for 15 mins followed by nucleocapsid addition measured after 15 mins by NAME assay
[3] = Inhibition of recombinant full length HIV-1 nucleocapsid assessed as inhibition of nucleocapsid-mediated melting of cTAR DNA measured 3 times with 1 min interval by FRET based assay; parameters: species or system Human immunodeficiency virus 1
[4] = system: Human immunodeficiency virus 1; experiment: Binding affinity to HIV-1 29-mer TAR RNA assessed as increase in melting temperature at 10 uM by fluorescence quenching assay
[5] = system: Human immunodeficiency virus 1; experiment: Binding affinity to HIV-1 cTAR DNA assessed as increase in melting temperature at 10 uM by fluorescence quenching assay
[6] = system: Human immunodeficiency virus 1; experiment: Binding affinity to HIV-1 cTAR DNA-29-mer TAR RNA duplex assessed as increase in melting temperature at 10 uM by fluorescence quenching assay
[7] = system: Human immunodeficiency virus 1; experiment: Selectivity index, ratio of melting temperature for HIV-1 29-mer TAR RNA to HIV-1 cTAR DNA
[8] = Inhibition of recombinant full length HIV-1 nucleocapsid assessed as inhibition of TAR RNA/cTAR DNA annealing preincubated with oligonucleotides for 15 mins followed by nucleocapsid addition measured after 15 mins by NAME assay; parameters: species or system Human immunodeficiency virus 1
[9] = system: Human immunodeficiency virus 1; experiment: Inhibition of recombinant full length HIV-1 nucleocapsid assessed as inhibition of TAR RNA /cTAR DNA annealing at 50 to 100 uM preincubated with oligonucleotides for 15 mins followed by nucleocapsid addition measured after 15 mins by NAME assay
[10] = system: Human immunodeficiency virus 1; experiment: Binding affinity to HIV-1 29-mer TAR RNA assessed as 1:1 compound-RNA complex formation at 10 uM by ESI-MS analysis
[11] = system: Human immunodeficiency virus 1; experiment: Binding affinity to HIV-1 cTAR DNA assessed as 2:1 […] complex formation at 10 uM by ESI-MS analysis
[12] = system: Human immunodeficiency virus 1; experiment: Binding affinity to HIV-1 29-mer TAR RNA at 10 uM by ESI-MS analysis
[13] = system: Human immunodeficiency virus 1; experiment: Inhibition of recombinant full length HIV-1 nucleocapsid assessed as inhibition of TAR RNA /cTAR DNA annealing at 20 to 50 uM preincubated with oligonucleotides for 15 mins followed by nucleocapsid addition measured after 15 mins by NAME assay
[14] = system: Human immunodeficiency virus 1; experiment: Binding affinity to HIV-1 cTAR DNA at 10 uM by ESI-MS analysis
[15] = system: Human immunodeficiency virus 1; experiment: Binding affinity to HIV-1 29-mer TAR RNA assessed as 3:1 compound-RNA complex formation at 10 uM by ESI-MS analysis
[16] = system: Human immunodeficiency virus 1; experiment: Binding affinity to HIV-1 cTAR DNA assessed as 4:1 […] complex formation at 10 uM by ESI-MS analysis

In the case of `C[C@H](NC(=O)C1(N)CCNCC1)C(=O)Nc1ccc2c(c1)C(=O)c1ccc(NC(=O)[C@H](C)NC(=O)C3(N)CCNCC3)cc1C2=O`, the pIC50 [1] was 4.40, the inhibition [2] was “inactive” and the pIC50 [3] was 4.84.
For `NC[C@H]1CC[C@H](C(=O)NCC(=O)Nc2ccc3c(c2)C(=O)c2ccc(NC(=O)CNC(=O)[C@H]4CC[C@H](CN)CC4)cc2C3=O)CC1`, the Activity [4] was “inactive”, the pIC50 [1] was 4.95 and the Activity [5] was “inactive”. The pIC50 [3] was 5.01 and the Activity [6] was “inactive”.
With `NCCC(N)C(=O)NCC(=O)Nc1ccc2c(c1)C(=O)c1ccc(NC(=O)CNC(=O)C(N)CCN)cc1C2=O` (centres undefined) the Activity [4] was “Active”, the Ratio [7] was 0.97 and the pIC50 [1] was 5.41. For the same compound, the pIC50 [8] was 4.09, the inhibition [9] was “Active” and the Activity [5] was “Active”. The pIC50 [3] was 5.34 and the Activity [6] was “Active”.
In the case of `C[C@H](NC(=O)C(N)Cc1ccc(N)cc1)C(=O)Nc1ccc2c(c1)C(=O)c1ccc(NC(=O)[C@H](C)NC(=O)C(N)Cc3ccc(N)cc3)cc1C2=O` (some centres undefined), the pIC50 [1] was 5.14, the inhibition [2] was “inactive” and the pIC50 [3] was 5.12.
With `C[C@H](NC(=O)C(N)CN)C(=O)Nc1ccc2c(c1)C(=O)c1ccc(NC(=O)[C@H](C)NC(=O)C(N)CN)cc1C2=O` (some centres undefined) the Activity [4] was “inactive”, the pIC50 [1] was 4.17 and the inhibition [2] was “inactive”. For the same compound, the Activity [5] was “inactive” and the pIC50 [3] was 4.36.
With `C[C@H](NC(=O)C1CCNCC1)C(=O)Nc1ccc2c(c1)C(=O)c1ccc(NC(=O)[C@H](C)NC(=O)C3CCNCC3)cc1C2=O` the pIC50 [1] was 4.68, the Activity [10] was “Active” and the inhibition [2] was “inactive”. For the same compound, the pIC50 [3] was 4.92 and the Activity [11] was “Active”.
In the case of `C[C@H](NC(=O)[C@H]1CC[C@H](CN)CC1)C(=O)Nc1ccc2c(c1)C(=O)c1ccc(NC(=O)[C@H](C)NC(=O)[C@H]3CC[C@H](CN)CC3)cc1C2=O`, the pIC50 [1] was 4.83, the inhibition [2] was “inactive” and the pIC50 [3] was 4.83.
With `NC1(C(=O)NCC(=O)Nc2ccc3c(c2)C(=O)c2ccc(NC(=O)CNC(=O)C4(N)CCNCC4)cc2C3=O)CCNCC1` the Activity [4] was “Active”, the pIC50 [1] was 5.11 and the pIC50 [8] was under 4.00. The inhibition [9] was “Active”, the Activity [5] was “Active” and the pIC50 [3] was 5.29. The Activity [6] was “Active”.
With `C[C@H](NC(=O)CCN)C(=O)Nc1ccc2c(c1)C(=O)c1ccc(NC(=O)[C@H](C)NC(=O)CCN)cc1C2=O` the pIC50 [1] was 4.40, the inhibition [2] was “inactive” and the pIC50 [3] was 4.90.
With `NCC(N)C(=O)NCC(=O)Nc1ccc2c(c1)C(=O)c1ccc(NC(=O)CNC(=O)C(N)CN)cc1C2=O` (centres undefined) the Activity [4] was “Active”, the pIC50 [1] was 5.37 and the pIC50 [8] was 3.99. For the same compound, the inhibition [9] was “Active”, the Activity [5] was “Active” and the pIC50 [3] was 5.42. For the same compound, the Activity [6] was “Active”.
For `NCCCCC(N)C(=O)NCC(=O)Nc1ccc2c(c1)C(=O)c1ccc(NC(=O)CNC(=O)C(N)CCCCN)cc1C2=O` (centres undefined), the Activity [4] was “Active”, the Ratio [7] was 0.72 and the pIC50 [1] was 5.67. The Activity [12] was “Active”, the pIC50 [8] was 4.63 and the Activity [5] was “Active”. For the same compound, the pIC50 [3] was 5.95, the inhibition [13] was “Active” and the Activity [6] was “Active”. For the same compound, the Activity [14] was “Active”.
For `NCCC(=O)NCC(=O)Nc1ccc2c(c1)C(=O)c1ccc(NC(=O)CNC(=O)CCN)cc1C2=O`, the Activity [4] was “Active”, the pIC50 [1] was 5.19 and the pIC50 [8] was under 4.00. For the same compound, the inhibition [9] was “Active”, the Activity [5] was “Active” and the pIC50 [3] was 5.39. The Activity [6] was “Active”.
With `NCCCC(N)C(=O)NCC(=O)Nc1ccc2c(c1)C(=O)c1ccc(NC(=O)CNC(=O)C(N)CCCN)cc1C2=O` (centres undefined) the Activity [4] was “Active”, the Ratio [7] was 0.72 and the pIC50 [1] was 5.58. The pIC50 [8] was 4.27, the Activity [5] was “Active” and the Activity [15] was “Active”. For the same compound, the pIC50 [3] was 5.74, the inhibition [13] was “Active” and the Activity [6] was “Active”. The Activity [14] was “Active”.
For `O=C(CNC(=O)C1CCNCC1)Nc1ccc2c(c1)C(=O)c1ccc(NC(=O)CNC(=O)C3CCNCC3)cc1C2=O`, the Activity [4] was “Active”, the pIC50 [1] was 4.97 and the Activity [10] was “Active”. The inhibition [2] was “inactive”, the Activity [5] was “Active” and the pIC50 [3] was 4.97. For the same compound, the Activity [6] was “Active” and the Activity [11] was “Active”.
For `C[C@H](NC(=O)C(N)CCN)C(=O)Nc1ccc2c(c1)C(=O)c1ccc(NC(=O)[C@H](C)NC(=O)C(N)CCN)cc1C2=O` (some centres undefined), the Activity [4] was “Active”, the Ratio [7] was 0.5 and the pIC50 [1] was 5.16. For the same compound, the pIC50 [8] was under 4.00, the inhibition [2] was “inactive” and the Activity [5] was “Active”. The pIC50 [3] was 5.37 and the Activity [6] was “Active”.
With `C[C@H](NC(=O)C(N)CCCN)C(=O)Nc1ccc2c(c1)C(=O)c1ccc(NC(=O)[C@H](C)NC(=O)C(N)CCCN)cc1C2=O` (some centres undefined) the Activity [4] was “Active”, the Ratio [7] was 0.58 and the pIC50 [1] was 5.31. For the same compound, the pIC50 [8] was 4.31, the inhibition [9] was “Active” and the Activity [5] was “Active”. For the same compound, the Activity [15] was “Active”, the pIC50 [3] was 5.71 and the Activity [16] was “Active”. For the same compound, the Activity [6] was “Active”.
With `C[C@H](NC(=O)C(N)CCCCN)C(=O)Nc1ccc2c(c1)C(=O)c1ccc(NC(=O)[C@H](C)NC(=O)C(N)CCCCN)cc1C2=O` (some centres undefined) the Activity [4] was “Active”, the Ratio [7] was 0.56 and the pIC50 [1] was 5.18. For the same compound, the pIC50 [8] was 4.09, the inhibition [9] was “Active” and the Activity [5] was “Active”. For the same compound, the Activity [15] was “Active”, the pIC50 [3] was 5.57 and the Activity [16] was “Active”. The Activity [6] was “Active”.
For `Nc1ccc(CC(N)C(=O)NCC(=O)Nc2ccc3c(c2)C(=O)c2ccc(NC(=O)CNC(=O)C(N)Cc4ccc(N)cc4)cc2C3=O)cc1` (centres undefined), the Activity [4] was “inactive”, the pIC50 [1] was 5.11 and the pIC50 [8] was under 4.00. The inhibition [2] was “inactive”, the Activity [5] was “inactive” and the pIC50 [3] was 5.11. For the same compound, the Activity [6] was “inactive”.
